According to ChEMBL document CHEMBL1148821, “4-anilino-5-carboxamido-2-pyridone derivatives as noncompetitive inhibitors of mitogen-activated protein kinase kinase” (J Med Chem, 2007):

How the values were obtained:
[1] = Toxicity in colon 26 tumor-bearing CD2F1 mouse assessed as lethality at 200 mg/kg; assay type: organism-based; parameters: dose 200 mg/kg; settings: in vivo, read-out: Activity
[2] = Toxicity in colon 26 tumor-bearing CD2F1 mouse assessed as lethality at 100 mg/kg; assay type: organism-based; parameters: dose 100 mg/kg; settings: in vivo, read-out: Activity

Structure (SMILES): Cn1cc(C(N)=O)c(Nc2ccc(I)cc2F)cc1=O
- mortality [1]: 100%
- mortality [2]: 40%
